# Key:
# Assay type in all cases: in vivo
# [1] = tested on: barnyardgrass (Echinochloa crus-galli); assay: Test G Post-Emergence Protocol; conditions: Echinochloa crus-galli, post-emergence, 312 h; for pest or weed control at 15.625 g/ha: 15.625 g ai/ha, evaluated after 13 days (100=total damage to plant; 0=no damage to plant), read-out: Barnyardgrass damage rating; for pest or weed control at 62.5 g/ha: 62.5 g ai/ha, read-out: Barnyardgrass damage rating (100=total damage to plant; 0=no damage to plant); for pest or weed control at 62.5 g/ha / pest or weed control at 250 g/ha: evaluated after 13 days; for pest or weed control at 250 g/ha: 250 g ai/ha, read-out: damage to plant, Barnyardgrass (100=total damage to plant; 0=no damage to plant)
# Method: (§1) Seeds of corn (Zea mays), giant foxtail (Setaria faberi), barnyardgrass (Echinochloa crus-galli), ivy-leaved morning glory (Ipomoea hederacea), redroot pigweed (Amaranthus retroflexus) and velvetleaf (Abutilon theophrasti) were sown in standard soil in pots. After cultivation for 8 days under controlled conditions in a glasshouse (at 24/16° C., day/night; 14 hours light; 65% humidity), the plants were sprayed with an aqueous spray solution derived from the formulation of the technical active ingredient in acetone/water (50:50) solution containing 0.5% Tween 20 (polyoxyethylene sorbitan monolaurate, CAS RN 9005-64-5) to give a final dose of 15.625, 62.5 or 250 g/ha of test compound.
# (§2) The test plants were then grown on under controlled conditions in a glasshouse (at 24/16° C., day/night; 14 hours light; 65% humidity) and watered twice daily. After 13 days the test was evaluated (100=total damage to plant; 0=no damage to plant). A dash (-) means no test result.
# [2] = tested on: velvetleaf (Abutilon theophrasti); assay: Test G Post-Emergence Protocol; conditions: Abutilon theophrasti, post-emergence, 312 h; for pest or weed control at 15.625 g/ha: 15.625 g ai/ha, evaluated after 13 days (100=total damage to plant; 0=no damage to plant), read-out: Velvetleaf damage rating; for pest or weed control at 62.5 g/ha: 62.5 g ai/ha, read-out: Velvetleaf damage rating (100=total damage to plant; 0=no damage to plant); for pest or weed control at 62.5 g/ha / pest or weed control at 250 g/ha: evaluated after 13 days; for pest or weed control at 250 g/ha: 250 g ai/ha, read-out: damage to plant, Velvetleaf (100=total damage to plant; 0=no damage to plant)
# Method: as §1, §2
# [3] = tested on: giant foxtail (Setaria faberi); assay: Test G Post-Emergence Protocol; conditions: Setaria faberi, post-emergence, 312 h; for pest or weed control at 15.625 g/ha: 15.625 g ai/ha, evaluated after 13 days (100=total damage to plant; 0=no damage to plant), read-out: Foxtail, Giant damage rating; for pest or weed control at 62.5 g/ha: 62.5 g ai/ha, read-out: Foxtail, Giant damage rating (100=total damage to plant; 0=no damage to plant); for pest or weed control at 62.5 g/ha / pest or weed control at 250 g/ha: evaluated after 13 days; for pest or weed control at 250 g/ha: 250 g ai/ha, read-out: damage to plant, Foxtail, Giant (100=total damage to plant; 0=no damage to plant)
# Method: as §1, §2
# [4] = tested on: corn (Zea mays); assay: Test G Post-Emergence Protocol; conditions: Zea mays, post-emergence, 312 h; for plant injury at 15.625 g/ha: 15.625 g ai/ha, evaluated after 13 days (100=total damage to plant; 0=no damage to plant), read-out: Corn damage rating; for plant injury at 62.5 g/ha: 62.5 g ai/ha, read-out: Corn damage rating (100=total damage to plant; 0=no damage to plant); for plant injury at 62.5 g/ha / plant injury at 250 g/ha: evaluated after 13 days; for plant injury at 250 g/ha: 250 g ai/ha, read-out: damage to plant, Corn (100=total damage to plant; 0=no damage to plant)
# Method: as §1, §2
# [5] = tested on: redroot pigweed (Amaranthus retroflexus); assay: Test G Post-Emergence Protocol; conditions: Amaranthus retroflexus, post-emergence, 312 h; for pest or weed control at 15.625 g/ha: 15.625 g ai/ha, evaluated after 13 days (100=total damage to plant; 0=no damage to plant), read-out: Pigweed, Redroot damage rating; for pest or weed control at 62.5 g/ha: 62.5 g ai/ha, read-out: Pigweed, Redroot damage rating (100=total damage to plant; 0=no damage to plant); for pest or weed control at 62.5 g/ha / pest or weed control at 250 g/ha: evaluated after 13 days; for pest or weed control at 250 g/ha: 250 g ai/ha, read-out: damage to plant, Pigweed, Redroot (100=total damage to plant; 0=no damage to plant)
# Method: as §1, §2
# [6] = tested on: water seeded rice seedlings (Rice, W. S. Jap, Oryza sativa cv. ‘Japonica—M202’); assay: Test F flooded paddy test; design: key: 0 = no effect, 100 = complete control; conditions: Flood
# From the text: (§3) Plant species in the flooded paddy test consisted of one stand of 9 or 10 water seeded rice seedlings (Rice, W. S. Jap, Oryza sativa cv. ‘Japonica—M202’ or Rice, W. S. Ind, ‘Indica’), and two stands of 3 or 4 transplanted rice seedlings (Oryza sativa cv. ‘Japonica—M202’), Monochoria (Monochoria vaginalis), sedge, umbrella (small-flower umbrella sedge, Cyperus difformis), hardstem bulrush (Scirpus juncoides), redstem (purple redstem, Ammannia coccinea), rice flatsedge (Cyperus iria), bearded sprangletop (Leptochloa fascicularis), barnyardgrass (Echinochloa crus-galli), waterplantain (common waterplantain, Alisma plantago-aquatica), and late watergrass (Echinochloa oryzicola) grown to the 2 to 2.5 leaf stage for testing. Potted plants were grown in a greenhouse with day/night temperature settings of 30/27° C., and supplemental balanced lighting was provided to maintain a 16-hour photoperiod. At time of treatment, test pots were flooded to 3 cm above the soil surface, treated by application of test compounds directly to the paddy water, and then maintained at that water depth for the duration of the test. Effects of treatments on rice and weeds were visually evaluated by comparison to untreated controls after 21 d. Plant response ratings, summarized in Table F, are based on a scale of 0 to 100 where 0 is no effect and 100 is complete control. A dash (-) response means no test result.
# [7] = tested on: barnyardgrass (Echinochloa crus-galli); assay: Test F flooded paddy test; design: key: 0 = no effect, 100 = complete control; conditions: Flood
# From the text: as §3
# [8] = tested on: sedge, umbrella (small-flower umbrella sedge, Cyperus difformis); assay: Test F flooded paddy test; design: key: 0 = no effect, 100 = complete control; conditions: Flood
# From the text: as §3
# [9] = tested on: transplanted rice seedlings (Oryza sativa cv. ‘Japonica—M202’); assay: Test F flooded paddy test; design: key: 0 = no effect, 100 = complete control; conditions: Flood
# From the text: as §3
# [10] = tested on: Monochoria (Monochoria vaginalis); assay: Test F flooded paddy test; design: key: 0 = no effect, 100 = complete control; conditions: Flood
# From the text: as §3
# [11] = tested on: late watergrass (Echinochloa oryzicola); assay: Test F flooded paddy test; design: key: 0 = no effect, 100 = complete control; conditions: Flood
# From the text: as §3
# [12] = tested on: rice flatsedge (Cyperus iria); assay: Test F flooded paddy test; design: key: 0 = no effect, 100 = complete control; conditions: Flood
# From the text: as §3
# [13] = tested on: bearded sprangletop (Leptochloa fascicularis); assay: Test F flooded paddy test; design: key: 0 = no effect, 100 = complete control; conditions: Flood
# From the text: as §3
# [14] = tested on: redstem (purple redstem, Ammannia coccinea); assay: Test F flooded paddy test; conditions: Flood
# From the text: as §3
# [15] = tested on: waterplantain (common waterplantain, Alisma plantago-aquatica); assay: Test F flooded paddy test; conditions: Flood
# From the text: as §3
structure (smiles),measurement,setting,value
CN1C[C@H](c2ccc(Cl)cc2)[C@@H](C(=O)Nc2cccc(F)n2)C1=O [Compound 1399],pest or weed control at 15.625 g/ha,[1],40%
same,pest or weed control at 62.5 g/ha,[1],70%
same,pest or weed control at 250 g/ha,[1],80%
same,pest or weed control at 15.625 g/ha,[2],0%
same,pest or weed control at 62.5 g/ha,[2],40%
same,pest or weed control at 250 g/ha,[2],40%
same,pest or weed control at 15.625 g/ha,[3],60%
same,pest or weed control at 62.5 g/ha,[3],80%
same,pest or weed control at 250 g/ha,[3],80%
same,plant injury at 15.625 g/ha,[4],0%
same,plant injury at 62.5 g/ha,[4],0%
same,plant injury at 250 g/ha,[4],30%
same,pest or weed control at 15.625 g/ha,[5],0%
same,pest or weed control at 62.5 g/ha,[5],20%
same,pest or weed control at 250 g/ha,[5],60%
CN1CC(c2cccc(OC(F)F)c2)C(C(=O)Nc2ccc(F)cc2F)C1=O (stereo not shown) [Compound 617],"Plant response rating: Rice, Water Seeded",[6]; 32 g ai/ha,0
same,"Plant response rating: Rice, Water Seed.",[6]; 64 g ai/ha,0
same,"Plant response rating: Rice, Water Seed.",[6]; 125 g ai/ha,20
same,"Plant response rating: Rice, Water Seeded",[6]; 250 g ai/ha,60
same,Plant response rating: Barnyardgrass,[7]; 32 g ai/ha,60
same,Plant response rating: Barnyardgrass,[7]; 64 g ai/ha,85
same,Plant response rating: Barnyardgrass,[7]; 125 g ai/ha,100
same,Plant response rating: Barnyardgrass,[7]; 250 g ai/ha,100
same,"Plant response rating: Sedge, Umbrella",[8]; 32 g ai/ha,0
same,"Plant response rating: Sedge, Umbrella",[8]; 64 g ai/ha,0
same,"Plant response rating: Sedge, Umbrella",[8]; 125 g ai/ha,0
same,"Plant response rating: Sedge, Umbrella",[8]; 250 g ai/ha,0
same,"Plant response rating: Rice, Transplanted",[9]; 32 g ai/ha,0
same,"Plant response rating: Rice, Transplanted",[9]; 64 g ai/ha,0
same,"Plant response rating: Rice, Transplanted",[9]; 125 g ai/ha,0
same,"Plant response rating: Rice, Transplanted",[9]; 250 g ai/ha,0
same,Plant response rating: Monochoria,[10]; 32 g ai/ha,0
same,Plant response rating: Monochoria,[10]; 64 g ai/ha,40
same,Plant response rating: Monochoria,[10]; 125 g ai/ha,70
same,Plant response rating: Monochoria,[10]; 250 g ai/ha,100
same,"Plant response rating: Watergrass, Late",[11]; 32 g ai/ha,100
same,"Plant response rating: Watergrass, Late",[11]; 64 g ai/ha,100
same,"Plant response rating: Watergrass, Late",[11]; 125 g ai/ha,100
same,"Plant response rating: Watergrass, Late",[11]; 250 g ai/ha,100
same,"Plant response rating: Flatsedge, Rice",[12]; 32 g ai/ha,0
same,"Plant response rating: Flatsedge, Rice",[12]; 64 g ai/ha,0
same,"Plant response rating: Flatsedge, Rice",[12]; 125 g ai/ha,0
same,"Plant response rating: Flatsedge, Rice",[12]; 250 g ai/ha,0
same,"Plant response rating: Sprangletop, Brdd.",[13]; 32 g ai/ha,0
same,"Plant response rating: Sprangletop, Brdd.",[13]; 64 g ai/ha,80
same,"Plant response rating: Sprangletop, Brdd.",[13]; 125 g ai/ha,85
same,"Plant response rating: Sprangletop, Brdd.",[13]; 250 g ai/ha,90
same,Plant response rating: Redstem,[14]; 32 g ai/ha,0
same,Plant response rating: Redstem,[14]; 64 g ai/ha,0
same,Plant response rating: Redstem,[14]; 125 g ai/ha,0
same,Plant response rating: Redstem,[14]; 250 g ai/ha,0
same,Plant response rating: Waterplantain,[15]; 32 g ai/ha,0
same,Plant response rating: Waterplantain,[15]; 64 g ai/ha,75
same,Plant response rating: Waterplantain,[15]; 125 g ai/ha,85
same,Plant response rating: Waterplantain,[15]; 250 g ai/ha,90
CN1C[C@H](c2ccc(C(F)(F)F)cc2)[C@@H](C(=O)Nc2cccnc2F)C1=O [Compound 1396],pest or weed control at 15.625 g/ha,[1],80%
same,pest or weed control at 62.5 g/ha,[1],80%
same,pest or weed control at 250 g/ha,[1],80%
same,pest or weed control at 15.625 g/ha,[2],40%
same,pest or weed control at 62.5 g/ha,[2],30%
same,pest or weed control at 250 g/ha,[2],60%
same,pest or weed control at 15.625 g/ha,[3],80%
same,pest or weed control at 62.5 g/ha,[3],80%
same,pest or weed control at 250 g/ha,[3],80%
same,plant injury at 15.625 g/ha,[4],70%
same,plant injury at 62.5 g/ha,[4],80%
same,plant injury at 250 g/ha,[4],70%
same,pest or weed control at 15.625 g/ha,[5],70%
same,pest or weed control at 62.5 g/ha,[5],70%
same,pest or weed control at 250 g/ha,[5],80%

# Source: US12077503B2, “Substituted cyclic amides and their use as herbicides” (FMC CORPORATION, priority 2015, dated 2024)
